Measured values: ChEMBL document CHEMBL5465560, “Selectivity Literature for EUbOPEN Chemogenomic Library” (2024)
Each block holds one compound with its values, some of them ahead of it.

How the values were obtained:
[1] = tested on: Tyrosine-protein kinase ABL1 (Homo sapiens), P00519 [F317L]; conditions: at 10 µM
[2] = molecular target: Serine/threonine-protein kinase Chk1 (Homo sapiens, UniProt O14757); assay: Selectivity interaction (Enzyme panel (AstraZeneca, AlphaScreen, functional assay)) EUB0000621a CHEK1
Serine/threonine-protein kinase Chk1, sequence (O14757 whole entry): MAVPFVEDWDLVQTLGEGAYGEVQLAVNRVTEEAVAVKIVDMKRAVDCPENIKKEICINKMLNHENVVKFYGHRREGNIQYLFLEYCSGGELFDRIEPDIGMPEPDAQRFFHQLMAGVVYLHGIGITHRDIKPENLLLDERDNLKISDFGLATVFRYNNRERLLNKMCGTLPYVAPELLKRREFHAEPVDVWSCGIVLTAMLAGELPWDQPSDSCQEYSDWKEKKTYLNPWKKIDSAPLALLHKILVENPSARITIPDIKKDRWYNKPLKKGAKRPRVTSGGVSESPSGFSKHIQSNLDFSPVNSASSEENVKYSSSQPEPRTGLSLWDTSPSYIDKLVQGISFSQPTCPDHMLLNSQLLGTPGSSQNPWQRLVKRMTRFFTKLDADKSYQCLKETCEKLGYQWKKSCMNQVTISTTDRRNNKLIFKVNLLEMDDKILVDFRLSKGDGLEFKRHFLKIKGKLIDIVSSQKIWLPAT

[3] = molecular target: T1, Tyrosine-protein kinase ZAP-70 (Homo sapiens) (UniProt P43403); assay: Selectivity interaction (KinomeScan (DiscoverX)) EUB0001049a ZAP70; conditions: at 1 µM
T1 sequence (whole entry): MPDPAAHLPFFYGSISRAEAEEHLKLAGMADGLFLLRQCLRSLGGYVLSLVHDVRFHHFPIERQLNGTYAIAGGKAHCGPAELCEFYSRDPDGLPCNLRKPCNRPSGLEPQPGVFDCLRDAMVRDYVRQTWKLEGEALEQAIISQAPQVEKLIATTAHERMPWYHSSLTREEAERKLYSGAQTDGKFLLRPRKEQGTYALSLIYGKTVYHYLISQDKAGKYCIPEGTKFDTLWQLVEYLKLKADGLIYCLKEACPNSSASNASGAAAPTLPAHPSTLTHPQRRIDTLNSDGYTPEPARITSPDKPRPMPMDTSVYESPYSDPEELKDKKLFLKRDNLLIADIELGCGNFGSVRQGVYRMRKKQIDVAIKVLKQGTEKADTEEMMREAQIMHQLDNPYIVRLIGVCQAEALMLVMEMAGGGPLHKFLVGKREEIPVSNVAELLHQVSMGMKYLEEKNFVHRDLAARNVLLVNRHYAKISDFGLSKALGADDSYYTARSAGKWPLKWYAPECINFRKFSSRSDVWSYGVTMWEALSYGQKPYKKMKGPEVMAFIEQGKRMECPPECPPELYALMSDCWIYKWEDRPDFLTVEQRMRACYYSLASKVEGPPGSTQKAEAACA

[4] = molecular target: STE20/SPS1-related proline-alanine-rich protein kinase (Homo sapiens) (UniProt Q9UEW8); assay: Selectivity interaction (KinomeScan (DiscoverX)) EUB0001049a STK39; conditions: at 1 µM
[5] = molecular target: T2, MAP/microtubule affinity-regulating kinase 4 (Homo sapiens) (UniProt Q96L34); assay: Selectivity interaction (Kinase panel (Invitrogen)) EUB0000639a MARK4; conditions: at 200 nM
T2 sequence (whole entry): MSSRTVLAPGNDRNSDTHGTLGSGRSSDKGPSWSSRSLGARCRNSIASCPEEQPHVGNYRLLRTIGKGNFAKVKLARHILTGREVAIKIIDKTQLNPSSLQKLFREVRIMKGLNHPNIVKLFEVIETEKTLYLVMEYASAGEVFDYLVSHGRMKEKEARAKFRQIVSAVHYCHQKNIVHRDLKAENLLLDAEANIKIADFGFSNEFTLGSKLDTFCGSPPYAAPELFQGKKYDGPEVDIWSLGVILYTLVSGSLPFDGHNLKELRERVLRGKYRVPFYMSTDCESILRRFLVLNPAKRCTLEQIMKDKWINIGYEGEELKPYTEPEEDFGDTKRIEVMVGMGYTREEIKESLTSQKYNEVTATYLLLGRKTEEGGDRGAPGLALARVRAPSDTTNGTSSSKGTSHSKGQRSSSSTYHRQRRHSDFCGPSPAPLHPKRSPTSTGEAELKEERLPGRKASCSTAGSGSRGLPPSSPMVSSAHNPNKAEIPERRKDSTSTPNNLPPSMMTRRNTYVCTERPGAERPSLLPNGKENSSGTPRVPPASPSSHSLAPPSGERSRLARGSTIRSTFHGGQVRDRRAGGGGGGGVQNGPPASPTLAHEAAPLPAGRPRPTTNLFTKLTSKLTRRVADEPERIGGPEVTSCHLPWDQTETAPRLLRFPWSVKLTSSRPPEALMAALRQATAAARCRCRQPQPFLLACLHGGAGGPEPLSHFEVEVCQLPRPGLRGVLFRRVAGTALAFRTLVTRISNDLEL

Focal adhesion kinase 1 = Focal adhesion kinase 1 (Homo sapiens, UniProt Q05397); assay: Selectivity interaction (Kinase panel (Invitrogen)) EUB0000639a PTK2; conditions: at 200 nM
[6] = molecular target: Protein polybromo-1 (Homo sapiens) (UniProt Q86U86); assay: Selectivity interaction (Bromodomain panel (DSF asssay)) EUB0000270b PBRM1
Protein polybromo-1 (Homo sapiens), sequence (Q86U86 whole entry): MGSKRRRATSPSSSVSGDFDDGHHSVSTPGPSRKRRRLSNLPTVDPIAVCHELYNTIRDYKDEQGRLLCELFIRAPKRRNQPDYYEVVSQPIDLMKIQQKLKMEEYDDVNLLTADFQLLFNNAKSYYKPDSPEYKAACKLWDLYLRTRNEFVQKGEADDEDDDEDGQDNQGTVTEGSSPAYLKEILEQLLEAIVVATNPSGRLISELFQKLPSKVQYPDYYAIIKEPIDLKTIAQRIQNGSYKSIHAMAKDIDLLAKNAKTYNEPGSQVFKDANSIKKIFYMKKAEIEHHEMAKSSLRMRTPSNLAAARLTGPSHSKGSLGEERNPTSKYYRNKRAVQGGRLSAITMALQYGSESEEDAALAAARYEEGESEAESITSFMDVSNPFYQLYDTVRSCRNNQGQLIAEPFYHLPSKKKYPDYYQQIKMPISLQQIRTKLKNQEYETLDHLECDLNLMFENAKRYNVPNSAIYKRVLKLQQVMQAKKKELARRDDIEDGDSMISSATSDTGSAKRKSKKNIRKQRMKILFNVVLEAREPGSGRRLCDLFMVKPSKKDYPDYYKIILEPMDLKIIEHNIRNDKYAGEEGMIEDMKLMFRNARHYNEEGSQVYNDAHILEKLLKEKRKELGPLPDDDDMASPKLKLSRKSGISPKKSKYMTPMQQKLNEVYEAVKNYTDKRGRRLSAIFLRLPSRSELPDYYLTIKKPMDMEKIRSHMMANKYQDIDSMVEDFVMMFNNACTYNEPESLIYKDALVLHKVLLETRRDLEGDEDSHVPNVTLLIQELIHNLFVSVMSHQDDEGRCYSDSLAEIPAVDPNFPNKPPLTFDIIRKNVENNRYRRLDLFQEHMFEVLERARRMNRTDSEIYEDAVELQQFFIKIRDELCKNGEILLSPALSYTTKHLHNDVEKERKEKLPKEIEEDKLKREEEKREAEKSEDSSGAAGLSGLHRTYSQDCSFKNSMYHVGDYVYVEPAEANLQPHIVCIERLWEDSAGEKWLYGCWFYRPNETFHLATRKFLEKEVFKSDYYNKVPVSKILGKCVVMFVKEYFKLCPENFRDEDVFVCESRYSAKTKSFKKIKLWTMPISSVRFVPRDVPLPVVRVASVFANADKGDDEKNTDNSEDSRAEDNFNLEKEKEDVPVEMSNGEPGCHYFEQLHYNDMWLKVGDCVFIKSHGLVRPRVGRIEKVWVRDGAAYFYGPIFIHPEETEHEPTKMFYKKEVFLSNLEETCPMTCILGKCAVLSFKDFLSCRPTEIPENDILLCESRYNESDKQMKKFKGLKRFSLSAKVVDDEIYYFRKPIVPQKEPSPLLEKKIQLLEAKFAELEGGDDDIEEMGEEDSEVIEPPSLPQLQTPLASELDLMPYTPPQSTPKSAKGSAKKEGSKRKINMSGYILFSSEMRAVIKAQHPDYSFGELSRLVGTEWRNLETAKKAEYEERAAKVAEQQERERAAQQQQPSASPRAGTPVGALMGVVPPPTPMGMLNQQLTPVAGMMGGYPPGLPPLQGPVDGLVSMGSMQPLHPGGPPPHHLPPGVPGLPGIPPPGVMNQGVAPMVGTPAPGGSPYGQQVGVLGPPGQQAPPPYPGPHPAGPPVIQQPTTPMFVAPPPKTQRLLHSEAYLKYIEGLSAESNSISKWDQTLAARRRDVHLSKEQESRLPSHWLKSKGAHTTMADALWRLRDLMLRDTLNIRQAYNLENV

[7] = molecular target: G protein-coupled receptor kinase 6 (Homo sapiens) (UniProt P43250); assay: Selectivity interaction (Kinase panel (Z-LYTE Assay)) EUB0001632a GRK6; conditions: at 10 µM
[8] = molecular target: Ribosomal protein S6 kinase alpha-4 (Homo sapiens) (UniProt O75676); assay: Selectivity interaction (ProQinase) EUB0000171b RPS6KA4
Ribosomal protein S6 kinase alpha-4 (Homo sapiens), sequence (O75676 whole entry, looked up): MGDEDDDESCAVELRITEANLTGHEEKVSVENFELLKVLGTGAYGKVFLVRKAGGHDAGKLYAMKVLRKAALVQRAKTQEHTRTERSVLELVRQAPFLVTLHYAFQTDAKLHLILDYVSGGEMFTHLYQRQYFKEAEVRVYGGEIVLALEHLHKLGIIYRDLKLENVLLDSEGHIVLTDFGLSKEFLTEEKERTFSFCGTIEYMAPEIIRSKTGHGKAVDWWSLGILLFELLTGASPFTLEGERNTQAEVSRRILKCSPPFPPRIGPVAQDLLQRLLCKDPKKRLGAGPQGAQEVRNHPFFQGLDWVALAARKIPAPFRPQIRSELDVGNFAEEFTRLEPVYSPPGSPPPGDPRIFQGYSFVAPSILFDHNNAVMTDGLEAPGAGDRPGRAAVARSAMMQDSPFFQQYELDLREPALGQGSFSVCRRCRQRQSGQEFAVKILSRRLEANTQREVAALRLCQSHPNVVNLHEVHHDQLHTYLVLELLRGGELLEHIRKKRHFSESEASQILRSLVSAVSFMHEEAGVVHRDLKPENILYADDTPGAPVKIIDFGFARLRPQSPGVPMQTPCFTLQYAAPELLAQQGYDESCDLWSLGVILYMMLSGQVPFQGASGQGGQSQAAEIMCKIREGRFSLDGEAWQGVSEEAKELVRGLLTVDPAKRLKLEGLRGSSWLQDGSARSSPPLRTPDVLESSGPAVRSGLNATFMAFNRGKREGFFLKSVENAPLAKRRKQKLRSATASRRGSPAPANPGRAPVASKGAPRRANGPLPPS

[9] = molecular target: Protein-tyrosine kinase 6 (Homo sapiens, UniProt Q13882); assay: Selectivity interaction (Upstate Kinase Profiler service (Millipore)) EUB0000056c PTK6; conditions: at 1 µM
[10] = molecular target: Casein kinase II subunit alpha (Homo sapiens, UniProt P68400); assay: Selectivity interaction (KinomeScan (DiscoverX)) EUB0000045b CSNK2A1
Casein kinase II subunit alpha, sequence (P68400 whole entry, looked up): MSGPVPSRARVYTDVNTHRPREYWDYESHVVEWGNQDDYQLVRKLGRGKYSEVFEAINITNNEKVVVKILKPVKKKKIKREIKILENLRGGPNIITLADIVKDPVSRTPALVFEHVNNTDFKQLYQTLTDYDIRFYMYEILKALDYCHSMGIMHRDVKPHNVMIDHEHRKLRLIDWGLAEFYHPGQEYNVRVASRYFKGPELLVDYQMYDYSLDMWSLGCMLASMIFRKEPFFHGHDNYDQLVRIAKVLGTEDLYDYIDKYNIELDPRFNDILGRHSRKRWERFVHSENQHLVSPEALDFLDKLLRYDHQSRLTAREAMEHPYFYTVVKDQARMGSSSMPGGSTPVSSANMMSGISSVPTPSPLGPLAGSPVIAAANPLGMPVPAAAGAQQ

[11] = molecular target: Tyrosine-protein kinase ABL2 (Homo sapiens, UniProt P42684); assay: Selectivity interaction (KinomeScan (DiscoverX)) EUB0000655a ABL2; conditions: at 10 µM
[12] = molecular target: Serine/threonine-protein kinase PAK 2 (Homo sapiens) (UniProt Q13177); assay: Selectivity interaction (Kinase panel (KiNativ target engagement assay in Jurkat cells)) EUB0001635a PAK2; assay type: cell-based; conditions: Selectivity number of off-targets 0.0, Selectivity number of targets 233.0, Source Knowledge https://www.sciencedirect.com/science/article/pii/S2451945619300674?via%3Dihub, at 1 µM
Serine/threonine-protein kinase PAK 2 (Homo sapiens), sequence (Q13177 whole entry): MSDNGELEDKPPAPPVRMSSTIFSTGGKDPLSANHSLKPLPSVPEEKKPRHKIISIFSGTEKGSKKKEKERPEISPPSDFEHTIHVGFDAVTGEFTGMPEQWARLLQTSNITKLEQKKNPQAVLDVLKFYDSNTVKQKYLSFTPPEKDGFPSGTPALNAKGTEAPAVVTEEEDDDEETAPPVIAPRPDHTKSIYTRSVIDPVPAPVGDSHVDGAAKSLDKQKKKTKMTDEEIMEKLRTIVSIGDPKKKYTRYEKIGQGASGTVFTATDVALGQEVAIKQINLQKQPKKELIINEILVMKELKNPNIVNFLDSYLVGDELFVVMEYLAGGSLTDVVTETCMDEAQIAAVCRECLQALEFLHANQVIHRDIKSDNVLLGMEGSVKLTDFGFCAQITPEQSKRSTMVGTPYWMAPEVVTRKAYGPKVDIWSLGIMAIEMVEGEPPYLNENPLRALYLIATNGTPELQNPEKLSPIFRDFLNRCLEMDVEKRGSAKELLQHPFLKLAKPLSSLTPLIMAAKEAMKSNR

[13] = molecular target: T3, Serine/threonine-protein kinase ICK (Homo sapiens) (UniProt Q9UPZ9); assay: Selectivity interaction (KinomeScan (DiscoverX)) EUB0000666a ICK; conditions: at 10 µM
T3 sequence (whole entry): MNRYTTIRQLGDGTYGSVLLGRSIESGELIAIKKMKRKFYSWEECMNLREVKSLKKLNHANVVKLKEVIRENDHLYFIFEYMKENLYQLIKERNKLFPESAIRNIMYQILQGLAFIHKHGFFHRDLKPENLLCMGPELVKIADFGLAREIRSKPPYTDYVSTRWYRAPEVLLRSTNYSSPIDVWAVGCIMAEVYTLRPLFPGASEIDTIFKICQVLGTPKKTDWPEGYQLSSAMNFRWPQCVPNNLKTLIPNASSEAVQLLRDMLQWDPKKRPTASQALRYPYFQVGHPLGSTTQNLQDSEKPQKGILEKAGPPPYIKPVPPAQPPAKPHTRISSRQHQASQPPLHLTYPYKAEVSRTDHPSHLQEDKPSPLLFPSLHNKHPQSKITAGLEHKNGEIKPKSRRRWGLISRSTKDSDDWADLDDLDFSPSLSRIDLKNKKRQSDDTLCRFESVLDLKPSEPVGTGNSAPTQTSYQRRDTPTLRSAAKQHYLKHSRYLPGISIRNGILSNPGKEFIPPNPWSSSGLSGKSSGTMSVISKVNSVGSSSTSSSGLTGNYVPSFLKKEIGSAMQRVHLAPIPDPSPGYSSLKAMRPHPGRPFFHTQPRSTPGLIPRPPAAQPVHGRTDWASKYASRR

Tyrosine-protein kinase ABL1 (Homo sapiens), P00519 [F317L], sequence (P00519 whole entry F317L): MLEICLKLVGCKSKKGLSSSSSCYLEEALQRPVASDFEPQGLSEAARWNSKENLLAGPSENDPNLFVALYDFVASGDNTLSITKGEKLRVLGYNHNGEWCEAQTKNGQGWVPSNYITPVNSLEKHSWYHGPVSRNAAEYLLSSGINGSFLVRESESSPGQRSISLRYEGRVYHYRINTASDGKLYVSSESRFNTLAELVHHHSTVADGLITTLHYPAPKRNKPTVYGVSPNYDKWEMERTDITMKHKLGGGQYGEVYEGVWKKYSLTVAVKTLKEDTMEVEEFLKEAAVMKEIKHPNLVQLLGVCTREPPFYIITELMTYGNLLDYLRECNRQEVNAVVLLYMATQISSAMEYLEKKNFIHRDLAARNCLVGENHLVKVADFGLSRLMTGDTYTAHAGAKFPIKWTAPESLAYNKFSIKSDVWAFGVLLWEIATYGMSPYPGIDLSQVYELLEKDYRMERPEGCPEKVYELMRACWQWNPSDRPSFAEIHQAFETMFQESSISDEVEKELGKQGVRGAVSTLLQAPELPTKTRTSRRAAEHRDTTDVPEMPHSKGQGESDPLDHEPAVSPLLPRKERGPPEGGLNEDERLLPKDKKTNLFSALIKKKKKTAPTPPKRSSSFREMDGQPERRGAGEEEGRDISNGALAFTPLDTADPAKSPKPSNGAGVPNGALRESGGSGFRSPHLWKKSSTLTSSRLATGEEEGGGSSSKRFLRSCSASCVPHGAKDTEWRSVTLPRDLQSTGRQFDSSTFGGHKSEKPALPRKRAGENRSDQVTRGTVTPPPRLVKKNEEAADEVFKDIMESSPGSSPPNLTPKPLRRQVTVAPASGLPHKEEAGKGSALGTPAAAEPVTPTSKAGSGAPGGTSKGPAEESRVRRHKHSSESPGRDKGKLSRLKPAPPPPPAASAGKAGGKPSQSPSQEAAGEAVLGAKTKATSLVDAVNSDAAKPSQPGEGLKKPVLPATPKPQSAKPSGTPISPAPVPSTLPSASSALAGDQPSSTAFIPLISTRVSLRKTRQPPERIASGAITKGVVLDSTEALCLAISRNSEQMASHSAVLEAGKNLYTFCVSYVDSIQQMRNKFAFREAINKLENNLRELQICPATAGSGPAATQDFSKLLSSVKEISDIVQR

Structure (SMILES): Cc1cc([C@@H](C)Nc2ccccc2C(=O)O)c2nc(N3CCOCC3)cc(=O)n2c1 [AZD-6482]
% of control [1]: 87%
IC50 [2]: > 1000 µM

Structure (SMILES): COc1cc(Nc2nc(C)cc(-c3cnn4nc(OC)ccc34)n2)cc(C(F)(F)F)c1
% of control [3]: 95%
% of control [4]: 64%

% of inhibition [5]: 14%
% of inhibition (Focal adhesion kinase 1): 3.3%
Structure (SMILES): CC[C@@H]1[C@H](F)C(=O)N[C@@H]1COc1nccc2cc(C(N)=O)c(OC)cc12 [ZIMLOVISERTIB]

dTM [6]: -1.74 K
Structure (SMILES): Cc1cc(CN)cc(C)c1-c1ncn(C)c1-c1cncn1C

% of control [7]: -1.29%
Structure (SMILES): Cn1cc(-n2cnc3c(NCc4nc5cc(Cl)c(Cl)cc5[nH]4)nc(N4CCOCC4)nc32)cn1

% of control ([8]; at 1 µM): 97%
% of control ([8]; at 5 µM): 94%
Structure (SMILES): C=CC(=O)Nc1cccc(C(=O)Nc2ccc(Nc3cc(-c4[nH]c(SC)nc4C)ccn3)cc2)c1

% of inhibition [9]: 0%
Structure (SMILES): Cc1ccc(-c2ccc3c(ccc4sc5c(c43)NC[C@@H](C)NC5=O)n2)cn1

Structure (SMILES): C=CC(=O)Nc1cc(-n2c(=O)ccc3cnc4ccc(-c5ccc(NS(C)(=O)=O)cc5)cc4c32)ccc1C
% of control ([10]; at 1 µM): 84%
% of control ([10]; at 10 µM): 51%

Structure (SMILES): CN(C)CCOc1ccc(-c2nc(-c3ccncc3)c(-c3ccc4c(c3)CC/C4=N\O)[nH]2)cc1
% of control [11]: 55%

Structure (SMILES): C=CC(=O)Nc1ccc(C(=O)Nc2[nH]nc3c2CN(C(=O)N[C@H](CN(C)C)c2ccccc2)C3(C)C)cc1
% of engagement [12]: 10.9%

Structure (SMILES): O=C(NOC[C@H](O)CO)c1ccc(F)c(F)c1Nc1ccc(I)cc1F
% of control [13]: 84%
